This assay addresses T1, AR-VP16 (Homo sapiens, UniProt P10275).
T1 sequence (P10275 560-920 limits assumed): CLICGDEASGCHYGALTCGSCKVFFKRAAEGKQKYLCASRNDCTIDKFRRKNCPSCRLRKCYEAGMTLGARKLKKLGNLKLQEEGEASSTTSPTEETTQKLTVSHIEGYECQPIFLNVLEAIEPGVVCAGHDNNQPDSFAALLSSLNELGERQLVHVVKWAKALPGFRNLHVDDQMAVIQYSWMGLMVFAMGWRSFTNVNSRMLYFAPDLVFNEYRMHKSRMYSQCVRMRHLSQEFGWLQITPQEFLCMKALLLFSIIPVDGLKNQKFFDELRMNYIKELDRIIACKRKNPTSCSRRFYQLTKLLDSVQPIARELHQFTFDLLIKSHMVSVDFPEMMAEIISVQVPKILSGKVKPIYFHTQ
Nature of the assay: AR-VP16 DNA Binding Assay, antagonist mode (HepG2 cells, 0.1 nM R1881). It counts as cell-based. The method, boiled down: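 Transfected HepG2 cells expressing AR-VP16 received serially diluted compound in charcoal-stripped-serum RPMI the day after transfection, with 0.1 nM R1881 (final) added only for antagonist testing. After 48 h, cells were lysed for measurement.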

With `Cc1cc(N2C(=O)C3(CCC3)N(c3ccc(C4CCOCC4)cc3)C2=S)cnc1C#N` [Compound 112, 3-Methyl-5-(8-oxo-5-(4-(tetrahydro-2H-pyran-4-yl)phenyl)-6-thioxo-5,7-diazaspiro[3.4]octan-7-yl)picolinonitrile], the IC50 was < 1000 nM.

As to `Cc1ccc(N2C(=S)N(c3cc(C#N)n(C)c3)C(=O)C23CCC3)cc1` [Compound 114, 1-Methyl-4-(8-oxo-6-thioxo-5-(p-tolyl)-5,7-diazaspiro[3.4]octan-7-yl)-1H-pyrrole-2-carbonitrile], the IC50 was > 1000 nM.

Consider `CC(C)(C)OC(=O)N1CCN(c2ccc(N3C(=S)N(c4cnc(C#N)c(C(F)(F)F)c4)C(=O)C34CCC4)cc2)CC1` [Compound 119, tert-Butyl 4-(4-(7-(6-cyano-5-(trifluoromethyl)pyridin-3-yl)-8-oxo-6-thioxo-5,7-diazaspiro[3.4]octan-5-yl)phenyl)piperazine-1-carboxylate], for which the IC50 was < 1000 nM.

With `CNS(=O)(=O)c1ccc(N2C(=S)N(c3cnc(C#N)c(C(F)(F)F)c3)C(=O)C23CCC3)cc1` [Compound 120, 4-(7-(6-Cyano-5-(trifluoromethyl)pyridin-3-yl)-8-oxo-6-thioxo-5,7-diazaspiro[3.4]octan-5-yl)-N-methylbenzenesulfonamide], the half-maximal inhibitory concentration (IC50) is > 1000 nM.

In the case of `CN1CCN(CCCc2ccc(N3C(=S)N(c4cnc(C#N)c(C(F)(F)F)c4)C(=O)C34CCC4)cc2)CC1` [Compound 124, 5-(5-(4-(3-(4-Methylpiperazin-1-yl)propyl)phenyl)-8-oxo-6-thioxo-5,7-diazaspiro[3.4]octan-7-yl)-3-(trifluoromethyl)picolinonitrile], the IC50 is < 1000 nM.

On to `N#Cc1ncc(N2C(=O)C3(CCC3)N(c3ccc(OCCN4CCCC4)c(F)c3)C2=S)cc1C(F)(F)F` [Compound 127, 5-(5-(3-Fluoro-4-(2-(pyrrolidin-1-yl)ethoxy)phenyl)-8-oxo-6-thioxo-5,7-diazaspiro[3.4]octan-7-yl)-3-(trifluoromethyl)picolinonitrile], for which the 50% inhibitory concentration (IC50) was < 1000 nM.

As to `N#Cc1ncc(N2C(=O)C3(CCC3)N(c3ccc(OCCCC(F)(F)C(F)(F)F)c(F)c3)C2=S)cc1C(F)(F)F` [Compound 134, 5-(5-(3-Fluoro-4-((4,4,5,5,5-pentafluoropentyl)oxy)phenyl)-8-oxo-6-thioxo-5,7-diazaspiro[3.4]octan-7-yl)-3-(trifluoromethyl)picolinonitrile], the half-inhibitory concentration (IC50) was < 1000 nM.

For `N#Cc1ncc(N2C(=O)C3(CCC3)N(c3ccc(OCCCOCc4ccccc4)c(F)c3)C2=S)cc1C(F)(F)F` [Compound 135, 5-(5-(4-(3-(Benzyloxy)propoxy)-3-fluorophenyl)-8-oxo-6-thioxo-5,7-diazaspiro[3.4]octan-7-yl)-3-(trifluoromethyl)picolinonitrile], the IC50 was < 1000 nM.

For the molecule `Cc1ccccc1CCOc1ccc(N2C(=S)N(c3cnc(C#N)c(C(F)(F)F)c3)C(=O)C23CCC3)cc1F` [Compound 137, 5-(5-(3-Fluoro-4-(2-methylphenethoxy)phenyl)-8-oxo-6-thioxo-5,7-diazaspiro[3.4]octan-7-yl)-3-(trifluoromethyl)picolinonitrile], the IC50 was < 1000 nM.

Consider `N#Cc1ncc(N2C(=O)C3(CCC3)N(c3ccc(OCCC(F)(F)C(F)(F)F)c(F)c3)C2=S)cc1C(F)(F)F` [Compound 139, 5-(5-(3-Fluoro-4-(3,3,4,4,4-pentafluorobutoxy)phenyl)-8-oxo-6-thioxo-5,7-diazaspiro[3.4]octan-7-yl)-3-(trifluoromethyl)picolinonitrile], for which the IC50 is < 1000 nM.

As to `N#Cc1ncc(N2C(=O)C3(CCC3)N(c3ccc(OCCc4ccncc4)c(F)c3)C2=S)cc1C(F)(F)F` [Compound 142, 5-(5-(3-Fluoro-4-(2-(pyridin-4-yl)ethoxy)phenyl)-8-oxo-6-thioxo-5,7-diazaspiro[3.4]octan-7-yl)-3-(trifluoromethyl)picolinonitrile], the half-maximal inhibitory concentration (IC50) is < 1000 nM.

Regarding `N#Cc1ncc(N2C(=O)C3(CCC3)N(c3ccc(OCCCc4cccnc4)c(F)c3)C2=S)cc1C(F)(F)F` [Compound 145, 5-(5-(3-Fluoro-4-(3-(pyridin-3-yl)propoxy)phenyl)-8-oxo-6-thioxo-5,7-diazaspiro[3.4]octan-7-yl)-3-(trifluoromethyl)picolinonitrile], the IC50 was < 1000 nM.

Regarding `N#Cc1ncc(N2C(=O)C3(CCC3)N(c3ccc(OCc4ccccn4)c(F)c3)C2=S)cc1C(F)(F)F` [Compound 147, 5-(5-(3-Fluoro-4-(pyridin-2-ylmethoxy)phenyl)-8-oxo-6-thioxo-5,7-diazaspiro[3.4]octan-7-yl)-3-(trifluoromethyl)picolinonitrile], the concentration for half-maximal inhibition (IC50) is < 1000 nM.

Consider `N#Cc1ncc(N2C(=O)C3(CCC3)N(c3ccc(OCc4cccnc4)c(F)c3)C2=S)cc1C(F)(F)F` [Compound 148, 5-(5-(3-Fluoro-4-(pyridin-3-ylmethoxy)phenyl)-8-oxo-6-thioxo-5,7-diazaspiro[3.4]octan-7-yl)-3-(trifluoromethyl)picolinonitrile], for which the concentration for half-maximal inhibition (IC50) was < 1000 nM.

As for `N#Cc1ncc(N2C(=O)C3(CCC3)N(c3ccc(OCc4ccncc4)c(F)c3)C2=S)cc1C(F)(F)F` [Compound 156, 5-(5-(3-Fluoro-4-(pyridin-4-ylmethoxy)phenyl)-8-oxo-6-thioxo-5,7-diazaspiro[3.4]octan-7-yl)-3-(trifluoromethyl)picolinonitrile], the half-inhibitory concentration (IC50) is < 1000 nM.

Turning to `CN1CCN(CCCOc2ccc(N3C(=S)N(c4cnc(C#N)c(C(F)(F)F)c4)C(=O)C34CCC4)cc2F)CC1` [Compound 157, 5-(5-(3-Fluoro-4-(3-(4-methylpiperazin-1-yl)propoxy)phenyl)-8-oxo-6-thioxo-5,7-diazaspiro[3.4]octan-7-yl)-3-(trifluoromethyl)picolinonitrile], the IC50 is < 1000 nM.

With `COCCOc1ccc(N2C(=S)N(c3ccc(C#N)c4ncccc34)C(=O)C23CCC3)cc1F` [Compound 171, 5-(5-(3-Fluoro-4-(2-methoxyethoxy)phenyl)-8-oxo-6-thioxo-5,7-diazaspiro[3.4]octan-7-yl)quinoline-8-carbonitrile], the 50% inhibitory concentration (IC50) was < 1000 nM.

Consider `N#Cc1ccc(N2C(=O)C3(CCC3)N(c3ccc(OCCc4ccccn4)c(F)c3)C2=S)c2cccnc12` [Compound 172, 5-(5-(3-Fluoro-4-(2-(pyridin-2-yl)ethoxy)phenyl)-8-oxo-6-thioxo-5,7-diazaspiro[3.4]octan-7-yl)quinoline-8-carbonitrile], for which the concentration for half-maximal inhibition (IC50) was < 1000 nM.

Consider `CN1CCN(CCOc2ccc(N3C(=S)N(c4ccc(C#N)c5ncccc45)C(=O)C34CCC4)cc2F)CC1` [Compound 173, 5-(5-(3-Fluoro-4-(2-(4-methylpiperazin-1-yl)ethoxy)phenyl)-8-oxo-6-thioxo-5,7-diazaspiro[3.4]octan-7-yl)quinoline-8-carbonitrile], for which the 50% inhibitory concentration (IC50) was < 1000 nM.

As for `N#Cc1ncc(N2C(=O)C3(CCC3)N(c3ccc(OCCN4CCNCC4)c(F)c3)C2=S)cc1C(F)(F)F` [Compound 174, 5-(5-(3-fluoro-4-(2-(piperazin-1-yl)ethoxy)phenyl)-8-oxo-6-thioxo-5,7-diazaspiro[3.4]octan-7-yl)-3-(trifluoromethyl)picolinonitrile], the IC50 was < 1000 nM.

On to `N#Cc1ncc(N2C(=O)C3(CCC3)N(c3ccc(OCCc4cnccn4)c(F)c3)C2=S)cc1C(F)(F)F` [Compound 176, 5-(5-(3-Fluoro-4-(2-(pyrazin-2-yl)ethoxy)phenyl)-8-oxo-6-thioxo-5,7-diazaspiro[3.4]octan-7-yl)-3-(trifluoromethyl)picolinonitrile], for which the IC50 was < 1000 nM.

Regarding `N#Cc1ncc(N2C(=O)C3(CCC3)N(c3ccc(OCCN4CCCCC4)c(F)c3)C2=S)cc1C(F)(F)F` [Compound 177, 5-(5-(3-Fluoro-4-(2-(piperidin-1-yl)ethoxy)phenyl)-8-oxo-6-thioxo-5,7-diazaspiro[3.4]octan-7-yl)-3-(trifluoromethyl)picolinonitrile], the half-maximal inhibitory concentration (IC50) is < 1000 nM.

Turning to `N#Cc1ncc(N2C(=O)C3(CCC3)N(c3ccc(OCCC4CCCCC4)c(F)c3)C2=S)cc1C(F)(F)F` [Compound 179, 5-(5-(4-(2-Cyclohexylethoxy)-3-fluorophenyl)-8-oxo-6-thioxo-5,7-diazaspiro[3.4]octan-7-yl)-3-(trifluoromethyl)picolinonitrile], the IC50 is < 1000 nM.

As to `COCCOc1ccc(N2C(=S)N(c3cnc(C#N)c(C(F)(F)F)c3)C(=O)C23CCC3)c(F)c1` [Compound 181, 5-(5-(2-Fluoro-4-(2-methoxyethoxy)phenyl)-8-oxo-6-thioxo-5,7-diazaspiro[3.4]octan-7-yl)-3-(trifluoromethyl)picolinonitrile], the half-inhibitory concentration (IC50) was < 1000 nM.

For `CN1CCN(CCOc2ccc(N3C(=S)N(c4cnc(C#N)c(C(F)(F)F)c4)C(=O)C34CCC4)c(F)c2)CC1` [Compound 182, 5-(5-(2-Fluoro-4-(2-(4-methylpiperazin-1-yl)ethoxy)phenyl)-8-oxo-6-thioxo-5,7-diazaspiro[3.4]octan-7-yl)-3-(trifluoromethyl)picolinonitrile], the concentration for half-maximal inhibition (IC50) was < 1000 nM.

Take `N#Cc1ncc(N2C(=O)C3(CCC3)N(c3ccc(OCCc4ccccn4)cc3F)C2=S)cc1C(F)(F)F` [Compound 183, 5-(5-(2-Fluoro-4-(2-(pyridin-2-yl)ethoxy)phenyl)-8-oxo-6-thioxo-5,7-diazaspiro[3.4]octan-7-yl)-3-(trifluoromethyl)picolinonitrile]: the 50% inhibitory concentration (IC50) is < 1000 nM.

On to `N#Cc1ncc(N2C(=O)C3(CCC3)N(c3ccc(OCCCN4CCCC4)c(F)c3)C2=S)cc1C(F)(F)F` [Compound 185, 5-(5-(3-Fluoro-4-(3-(pyrrolidin-1-yl)propoxy)phenyl)-8-oxo-6-thioxo-5,7-diazaspiro[3.4]octan-7-yl)-3-(trifluoromethyl)picolinonitrile], for which the concentration for half-maximal inhibition (IC50) was < 1000 nM.

The term IC50 denotes the concentration at which inhibition is half-maximal. Lower therefore signals higher potency.

Values taken from patent US9108944B2, “Androgen receptor modulators and uses thereof” (ARAGON PHARMACEUTICALS, INC., priority 2010, dated 2015).
